Reference: article PMC6576746, “Rational discovery of dual-indication multi-target PDE/Kinase inhibitor for precision anti-cancer therapy using structural systems pharmacology” (PLoS Computational Biology, 2019)

Columns and labels:
Test in all cases: cells
Parameters in all cases: species or system panel of human cancer cell lines; Eurofins OncoPanel proliferation; nuclei count by high-content fluorescence imaging, 10-point dose response
MEG01 = settings: Homo sapiens, MEG-01, 72 h, cell count, 3 days
Procedure, shortened: (§1)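 Ten half-log concentrations from 100 μM (0.1% DMSO max) applied one day post-seeding, 3-day exposure at 37°C; untreated time-zero plate for GI50. Readout is nuclear cell count by automated fluorescence imaging, giving EC50, IC50, GI50 and 0–10 activity area.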

SW684 = settings: Homo sapiens, SW684, 72 h, cell count, 3 days
Procedure, shortened: as §1

L-428 = settings: Homo sapiens, L-428, 72 h, cell count, 3 days
Procedure, shortened: as §1

BM-1604 = settings: BM-1604, 72 h, cell count, 3 days
Procedure, shortened: as §1

NALM-6 = settings: Homo sapiens, NALM-6, 72 h, cell count, 3 days
Procedure, shortened: as §1

639-V = settings: Homo sapiens, 639-V, 72 h, cell count, 3 days
Procedure, shortened: as §1

HEL-92-1-7 = settings: Homo sapiens, HEL 92.1.7, 72 h, cell count, 3 days
Procedure, shortened: as §1

SCaBER = settings: Homo sapiens, SCaBER, 72 h, cell count, 3 days
Procedure, shortened: as §1

Hs 729 = settings: 72 h, cell count, 3 days
Procedure, shortened: as §1

BV-173 = settings: Homo sapiens, BV-173, 72 h, cell count, 3 days
Procedure, shortened: as §1

H4 = settings: 72 h, cell count, 3 days
Procedure, shortened: as §1

MOLT-3 = settings: Homo sapiens, MOLT-3, 72 h, cell count, 3 days
Procedure, shortened: as §1

VA-ES-BJ = settings: 72 h, cell count, 3 days
Procedure, shortened: as §1

MV-4-11 = settings: Homo sapiens, MV4-11, 72 h, cell count, 3 days
Procedure, shortened: as §1

[1] = 50% of maximum possible response

## C[C@@H]1CC(=O)NN=C1c1ccc(NN=C(C#N)C#N)cc1 [levosimendan]
MEG01; [1]
  IC50: 83.2 µM
MEG01; corrected for time zero
  GI50: 58.5 µM
MEG01; curve inflection point
  EC50: 83.2 µM
SW684; [1]
  IC50: > 100 µM
SW684; corrected for time zero
  GI50: 17.1 µM
SW684; curve inflection point
  EC50: 21.1 µM
L-428; [1]
  IC50: 69.2 µM
L-428; corrected for time zero
  GI50: 53.1 µM
L-428; curve inflection point
  EC50: 69.2 µM
BM-1604; [1]
  IC50: 12.6 µM
BM-1604; corrected for time zero
  GI50: 7.44 µM
BM-1604; curve inflection point
  EC50: 12.6 µM
NALM-6; [1]
  IC50: 30.8 µM
NALM-6; corrected for time zero
  GI50: 23.4 µM
NALM-6; curve inflection point
  EC50: 30.8 µM
639-V; [1]
  IC50: 6.97 µM
639-V; corrected for time zero
  GI50: 6.51 µM
639-V; curve inflection point
  EC50: 5.59 µM
HEL-92-1-7; [1]
  IC50: 21.8 µM
HEL-92-1-7; corrected for time zero
  GI50: 17.9 µM
HEL-92-1-7; curve inflection point
  EC50: 21.8 µM
SCaBER; [1]
  IC50: 60.4 µM
SCaBER; corrected for time zero
  GI50: 56.5 µM
SCaBER; curve inflection point
  EC50: 60.4 µM
Hs 729; [1]
  IC50: > 100 µM
Hs 729; corrected for time zero
  GI50: 79.3 µM
Hs 729; curve inflection point
  EC50: > 100 µM
BV-173; [1]
  IC50: 12 µM
BV-173; corrected for time zero
  GI50: 10.1 µM
BV-173; curve inflection point
  EC50: 12 µM
H4; [1]
  IC50: > 100 µM
H4; corrected for time zero
  GI50: > 100 µM
H4; curve inflection point
  EC50: > 100 µM
MOLT-3; [1]
  IC50: 32.4 µM
MOLT-3; corrected for time zero
  GI50: 19.9 µM
MOLT-3; curve inflection point
  EC50: 30.5 µM
VA-ES-BJ; [1]
  IC50: 51.7 µM
VA-ES-BJ; corrected for time zero
  GI50: 42.4 µM
VA-ES-BJ; curve inflection point
  EC50: 51.7 µM
MV-4-11; [1]
  IC50: 13.1 µM
MV-4-11; corrected for time zero
  GI50: 9.2 µM
MV-4-11; curve inflection point
  EC50: 12.6 µM
